Assay results as given in a melting point compilation (Tetko et al.; mined from patent text by program, amines drawn as free bases though some values may be those of a salt).

Row | Structure (SMILES) | melting point [°C]
1 | O=C(Nc1ccccc1)N1CC(Oc2cccc(C(F)(F)F)c2)C1 | 137 to 138
2 | CCC(C)(C)c1cc(-c2cccc(CC3SC(N4CCOCC4)=NC3=O)c2)ccc1O (stereo unspecified) | 74 to 77
3 | COC1=C(OC)C(=O)C2=C(CC(CCCCOc3ccc(C(=O)N4CCC(c5ccccc5)CC4)cc3)C2)C1=O | 90 to 94
4 | N#CC1=C(c2cccs2)Nc2n[nH]cc2C1c1cccc(Cl)c1Cl (stereo unspecified) | 232
5 | Nc1scc2c(-c3n[nH]c(=O)o3)nn(-c3ccccc3)c(=O)c12 | > 250
6 | Cc1nn(-c2ccc(Cl)cc2)c(C)c1C(=O)N[C@H](C)[C@](O)(Cn1cncn1)c1ccc(F)cc1F | 144 to 145
7 | N#CCc1c(Cl)cccc1Br | 82 to 84
8 | O=Cc1cnccc1Cl | 53 to 54
9 | COc1ccc2c(c1)OC(CN)C2 (stereo unspecified) | > 220
10 | N=C1CCCN1Cc1ccc(Cl)nc1 | 166
11 | O=C(CCCOc1ccc(OCc2ccccc2)cc1)C(F)(F)F | 51 to 53
12 | CC(C)(C)OC(=O)COc1cc(NC(=O)OC(C)(C)C)c([N+](=O)[O-])cc1C#Cc1ccccc1 | 130
13 | COC(=O)C(NC(=O)C(NC(C)=O)(OC)C(Br)Br)=C(C)C (stereo unspecified) | 150 to 151
14 | CCOC(=O)Cc1ccc(-c2ccc(-c3ccccc3)cc2)o1 | 77 to 78
15 | COCCNC(=O)C1CCCN1S(=O)(=O)c1ccc(Cl)c(COc2cccc3ccc(C)nc23)c1Cl (stereo unspecified) | 107
16 | CC(C)(C)c1cc(C(C)(CCC(=O)O)c2ccc(O)c(C(C)(C)C)c2)ccc1O | 155
17 | COC(=O)[C@@H]1CSC(=S)N1CC(C)(C)S | 126 to 127
18 | COc1cc2ccnc(C(S)(C#N)CCC(=O)O)c2cc1OC (stereo unspecified) | 169 to 170
19 | CC(=O)OCC1OC(n2ccc3c(Br)cccc32)C(OC(C)=O)C(OC(C)=O)C1OC(C)=O (stereo unspecified) | 166 to 167
20 | CN1C(=O)N(c2c(Cl)cccc2Cl)Cc2cnc(N)nc21 | 176 to 184
21 | Oc1cccc2sncc12 | 133 to 134
22 | C=CC(=O)NCC(=O)Nc1cc(Cl)c(C)c(Cl)c1O | 225 to 227
23 | O=c1n(CCCCCl)nc2n1-c1ccccc1OC2 | 56 to 57
24 | CCOC(=O)c1c(-c2cccs2)nn(CC)c(=O)c1Nc1cccnc1 | 124 to 125
25 | CCOC(=O)c1ccc(CN2CCN(C3=NC4(C=CC(=O)C=C4)C(c4ccccc4)=C3)CC2)cc1 | 199
26 | CCNC(=O)CSc1nc(Cl)cc(Nc2cccc(C)c2C)n1 | 191 to 192

Row | Structure (SMILES) | melting point [°C]
27 | Cc1ccc2nc(-c3cccc(C(=O)O)c3)oc2c1 | 239 to 241
28 | COCc1cc(C(O)CNCCCCCCOCCCc2ccccc2)ccc1O (stereo unspecified) | 68 to 70
29 | Cc1ccc(-c2ccc3c(c2)CCc2nn(-c4ccccn4)c(O)c2-3)cc1 | 177 to 178
30 | N#Cc1cc(-c2ccoc2)c2ccc(OCc3cccc(-c4ccc(F)cc4)n3)cc2c1 | 168 to 170
31 | CC(=O)N1CCCC2(Cc3cc([N+](=O)[O-])ccc3O2)C1 (stereo unspecified) | 165 to 167
32 | COC(=O)C(O)(c1ccc(Cl)c(Cl)c1)c1ccc(Cl)c(Cl)c1 | 69
33 | CCOc1c(OC)c(OC)cc(C(=O)O)c1-c1c(C(=O)O)cc(OC)c2c1OCO2 | 236 to 237
34 | CCCCCc1c(C(C)C)nc(C(C)C)c(CO)c1-c1ccc(C(C)C)cc1 | 42 to 44
35 | Cc1ccc(N2CN(CCN(C)C)CN(C)C2=S)c(C)c1 | 65 to 70
36 | CC(=O)Oc1ccc2c(c1)C(C)c1cc(OC(C)=O)ccc1-2 | 139 to 140
37 | c1ccc(C(N=C2NCCCN2)c2ccccc2)cc1 | 238 to 242
38 | CCc1ncc(CCCOc2c(C)cc(-c3nnn(C)n3)cc2C)n1C | 96 to 98
39 | Cn1ncc(/C=C/C(=O)Nc2ccc(CC(=O)O)cc2)c1-c1ccc(F)cc1 | 245 to 246
40 | O=C1O[C@@H](Cn2ccnn2)CN1c1ccc(-c2ccc(CO)nc2)c(F)c1 | 177
41 | O=C1C[C@@H]2O[C@@H](CS(=O)(=O)c3ccccc3)CN12 (racemic) | 144 to 146
42 | COc1cc2cc(-c3ccc(OCC(O)CNC(C)(C)C)cc3)n(C)c(=O)c2cc1OC (stereo unspecified) | 165 to 166
43 | CC(=O)NCC1CN(c2ccc(N3CCN(c4nc(C)ns4)CC3)c(F)c2)C(=O)O1 (stereo unspecified) | 168 to 170
44 | Cn1c(=O)c2c(nc(N3CCC(N)C3)n2Cc2ccccc2C#N)n(C)c1=O (stereo unspecified) | 186 to 189
45 | COCC#Cc1ncn2c1CN(C)C(=O)c1ccccc1-2 | 114 to 115
46 | COc1ccc(CSc2nnc(-c3ccn4ncnc4c3)o2)cc1C(F)(F)F | 178 to 179
47 | CC(C)OC(=O)C1(F)C(=O)NC(=O)NC1O/N=C\c1ccco1 (stereo unspecified) | 131 to 134
48 | CC(C)c1nc(-c2ncn3c2C(C)(C)N(C(=O)N2CCCC2)c2cc(F)ccc2-3)no1 | 154 to 156
49 | Fc1cccc(OC2CN([C@H]3CC[C@@H](c4c[nH]c5ccc(F)cc54)CC3)C2)c1 | 119 to 125
50 | O=C(O)c1ccc(-c2cc([N+](=O)[O-])ccc2F)cc1 | > 280
51 | COc1ccccc1C(=O)NS(=O)(=O)c1ccc(N)cc1 | 180 to 182
52 | CCOc1ccc(N2CCN(c3c(C)c4c(c(OC)c3C)OC(C)(C)C4)CC2)cc1 | 152 to 154

Row | Structure (SMILES) | melting point [°C]
53 | CC1Nc2ccc(-c3csc(C#N)c3)cc2C2(CCCCC2)O1 (stereo unspecified) | 111 to 112
54 | Clc1cccc2c1Oc1ccccc1NC2 | 71 to 73
55 | COC(=O)c1nc(-c2ccc(Cl)c(OC)c2F)cc(N)c1C | 122 to 125
56 | O=C1CN2CCOC2(c2ccccc2F)c2cc(Cl)ccc2N1CCO (stereo unspecified) | 141 to 146
57 | Cc1cn(C2CC(O)(COCc3ccccc3)C(CO)O2)c(=O)n(COCc2ccccc2)c1=O (stereo unspecified) | 83 to 84
58 | Cc1cc(OCCN(C)C)c(C(C)C)cc1OC(=O)CCCC(=O)O | 109 to 110
59 | Cn1c2ccccc2c2c(C(=O)O)c(C(=O)O)ccc21 | 294
60 | CCOc1nc(C2CC2)nc(OC)c1C=O | 93 to 94
61 | COc1cc(C(=O)O)ccc1Cc1cn(C)c2ccc(C(=O)NC[C@H](C)CC(F)(F)F)cc12 | 218 to 223
62 | CCCN(C)CCCN1CCN(c2cc(-c3ccnc(NCc4cccc(OC)c4)n3)cc3ccc(OC)cc23)CC1 | 156 to 160
63 | CC(C)CC(C(=O)Nc1cc(Cl)cc(Cl)c1)N1C(=O)C=CC1=O (stereo unspecified) | 150
64 | COc1ccc(C=C2C=CC(=O)O2)cc1 | 118 to 120
65 | NC(=O)CNc1ncccc1N | 153 to 155
66 | COc1ccc(C[C@]2(C)C(=O)O[C@@H](c3ccccc3)N2C(=O)c2ccccc2)cc1 | 128 to 129
67 | CC(C)(C)CC(=O)NCc1ccc2c(c1)C(=O)N(C1CCC(=O)NC1=O)C2=O (stereo unspecified) | 232 to 234
68 | COc1ccc(S(N)(=O)=O)cc1C(O)CCl (stereo unspecified) | 112
69 | CCCCC/C(=C\C=C\C(=O)NCCCCc1cccnc1)c1ccc(OC)cc1 | 81.5 to 82.5
70 | Cc1nc[nH]c1CSCCN=C(NC#N)NCCSCc1[nH]cnc1C | 92 to 95
71 | OCc1ccc(Cn2c(CC3CCN(CCNc4ccc(Cl)nn4)CC3)nc3ccccc32)o1 | 188
72 | Oc1ccc(Nc2cnc3cc(Cl)ccc3c2)cc1 | 218
73 | N#Cc1cccc(C2C(=O)c3ccccc3C2=O)c1 | 179 to 182
74 | O=C1OCCC1C1CCc2c1[nH]c1ccccc21 (stereo unspecified) | 155 to 157
75 | CCOC(=O)C(=CNc1ccc(Br)cn1)[N+](=O)[O-] | 141 to 142
76 | CNC(=O)c1ccccc1Nc1nc(Nc2cccc3c2N(C)CCN(C)C3=O)ncc1Cl | 243 to 244
77 | COc1ccc(C(C)N(C)CCCOc2ccc(S(=O)(=O)c3c(C(C)C)cn4ccccc34)cc2)cc1 (stereo unspecified) | 140 to 144
78 | COC(=O)CCc1ccc(-n2cn[nH]c2=O)cc1 | 174 to 176

Row | Structure (SMILES) | melting point [°C]
79 | COc1ccc2c(c1)C(=O)N(c1ccc3c(ccn3C)n1)C2 | 230 to 234
80 | COc1ccc(C(=O)OCCOC(=O)NC2(C(=O)O)CC2)cc1OC | 172 to 174
81 | CC(=O)Nc1ccc(Oc2c([N+](=O)[O-])cc(C(=O)O)cc2S(=O)(=O)NC(C)=O)cc1 | 305 to 306
82 | CN1C(c2ccc(C#N)cc2)=NC(C(F)(F)F)(C(F)(F)F)C1NC(=O)c1ccc(CF)cc1 (stereo unspecified) | 189 to 190
83 | O=C1NC(=O)c2c1c(-c1ccccc1Cl)cc1[nH]c3ccc(CCO)cc3c21 | 253 to 257
84 | CCOC(=O)c1cc(=O)c2c(C(C)C)cccc2[nH]1 | 176 to 178
85 | Cc1noc(C(=O)N2CCCCC2)c1C(=O)O | 128 to 130
86 | CO[C@@H]1CN(CCn2c(C)nc3ccccc3c2=O)CC[C@@H]1NC(=O)c1cc(Cl)c(N)c2c1OCC2 (relative stereo) | 275
87 | Cc1nc(Nc2ccc3[nH]ccc3c2)c2sc(-c3ccccc3)cc2n1 | 205 to 210
88 | Cc1ccc(C=NNc2ccc(S(N)(=O)=O)cc2)cc1 | 216 to 218
89 | CCOC(=O)C(=Cc1cc(OC)c(OC)cc1OC)C(=O)OCC | 86 to 87
90 | CC(C)c1cccc(C(C)C)c1NC(=O)NCC1(S(=O)(=O)c2ccccc2)CCCC1 | 124
91 | Cc1ccc(=O)n(-c2cc(F)c(C#N)cc2F)n1 | 159
92 | CCCCCCc1nc2c(N)nc3ccccc3c2n1CCCCNS(=O)(=O)c1ccccc1 | 84.8 to 85.4
93 | O=C(O)CCCCSc1nc(-c2ccccc2)c(-c2ccccc2)[nH]1 | 190 to 195
94 | CCOC(=O)C(C(=O)OCC)c1ccc([N+](=O)[O-])cn1 | 91.5 to 93.5
95 | CC(=O)Nc1nc(CCc2ccc(CCBr)cc2)cs1 | 153 to 154
96 | CCOC(=O)C(Br)C(=O)Nc1ccccc1 (racemic) | 90
97 | OC1CCCC(c2ccccc2)O1 (stereo unspecified) | 64.5 to 71
98 | O=C1c2ccccc2C(=O)N1CC(=O)N(CC(=O)n1ccnc1)c1ccccc1 | 206
99 | O=C1CC2(C(=O)N1)C(=O)N(Cc1ccc(Br)cc1F)C(=O)c1ccccc12 (stereo unspecified) | 112 to 114
100 | CC(C)c1cccc(C(C)C)c1NC(=O)CNC(c1ccccc1)c1ccc(F)cc1 (stereo unspecified) | 161
101 | CCCCOc1ccc(CC(=O)N[C@@H](C(=O)OCc2ccccc2)[C@@H](C)O)cc1 | 80 to 83
